# Columns and labels:
# Test in all cases: radiometric filter-binding kinase assay, Kinase HotSpot
# Conditions in all cases: compound 0.5 µM; ATP 10 µM
# [1] = target: ACVR1 (human) (UniProt Q04771)
# [2] = target: AURKA (human) (UniProt O14965)
# [3] = target: BLK (human) (UniProt P51451)
# [4] = target: BMX (human) (UniProt P51813)
# [5] = target: BRSK2 (human) (UniProt Q8IWQ3)
# [6] = target: CAMK2G (human) (UniProt Q13555)
# [7] = target: CAMK4 (human) (UniProt Q16566)
# [8] = target: CDK1 CCNB1 (human) (UniProt P06493+P14635)
# [9] = target: CHEK2 (human) (UniProt O96017)
# [10] = target: CLK4 (human) (UniProt Q9HAZ1)
# [11] = target: DAPK2 (human) (UniProt Q9UIK4)
# [12] = target: DAPK3 (human) (UniProt O43293)
# Sequence of DAPK3 (human) (O43293 whole entry, looked up): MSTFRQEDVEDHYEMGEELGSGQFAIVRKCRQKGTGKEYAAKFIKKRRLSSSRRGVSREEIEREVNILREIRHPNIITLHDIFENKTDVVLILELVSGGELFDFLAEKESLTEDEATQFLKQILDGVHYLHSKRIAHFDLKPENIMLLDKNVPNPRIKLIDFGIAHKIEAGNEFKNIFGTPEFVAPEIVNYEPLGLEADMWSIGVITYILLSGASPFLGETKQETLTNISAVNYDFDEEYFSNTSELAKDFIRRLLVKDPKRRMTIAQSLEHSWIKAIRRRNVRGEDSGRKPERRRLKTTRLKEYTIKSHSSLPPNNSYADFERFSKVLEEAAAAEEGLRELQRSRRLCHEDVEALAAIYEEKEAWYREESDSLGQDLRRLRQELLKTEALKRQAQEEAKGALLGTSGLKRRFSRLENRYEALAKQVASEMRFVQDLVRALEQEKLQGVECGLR
# [13] = target: DSTYK (human) (UniProt Q6XUX3)
# [14] = target: DYRK4 (human) (UniProt Q9NR20)
# [15] = target: EPHA2 (human) (UniProt P29317)
# [16] = target: EPHA3 (human) (UniProt P29320)
# [17] = target: EPHB1 (human) (UniProt P54762)
# [18] = target: FGFR2 (human) (UniProt P21802)
# Sequence of FGFR2 (human) (P21802 whole entry, looked up): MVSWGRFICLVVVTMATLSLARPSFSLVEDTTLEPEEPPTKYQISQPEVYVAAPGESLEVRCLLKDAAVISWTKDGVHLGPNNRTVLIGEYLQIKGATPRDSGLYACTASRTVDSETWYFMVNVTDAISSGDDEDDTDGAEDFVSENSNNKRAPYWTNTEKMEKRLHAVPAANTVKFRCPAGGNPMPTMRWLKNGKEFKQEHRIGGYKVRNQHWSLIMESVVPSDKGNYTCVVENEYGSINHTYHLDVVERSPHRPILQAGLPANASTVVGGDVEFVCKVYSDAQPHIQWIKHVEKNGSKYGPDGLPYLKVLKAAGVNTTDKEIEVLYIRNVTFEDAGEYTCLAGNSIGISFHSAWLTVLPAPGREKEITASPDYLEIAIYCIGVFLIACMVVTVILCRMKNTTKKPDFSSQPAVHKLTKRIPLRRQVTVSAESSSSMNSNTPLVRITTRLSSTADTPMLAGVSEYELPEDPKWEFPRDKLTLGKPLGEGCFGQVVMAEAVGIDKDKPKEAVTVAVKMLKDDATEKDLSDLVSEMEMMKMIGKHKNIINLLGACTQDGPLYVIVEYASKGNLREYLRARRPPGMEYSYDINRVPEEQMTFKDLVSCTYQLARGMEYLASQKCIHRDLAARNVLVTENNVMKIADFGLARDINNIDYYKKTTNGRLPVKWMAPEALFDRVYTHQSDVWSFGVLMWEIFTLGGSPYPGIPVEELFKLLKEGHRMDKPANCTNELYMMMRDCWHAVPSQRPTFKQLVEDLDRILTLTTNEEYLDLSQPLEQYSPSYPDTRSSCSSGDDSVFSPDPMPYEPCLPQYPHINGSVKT
# [19] = target: FLT1 (human) (UniProt P17948)
# [20] = target: FLT3 (human) (UniProt P36888)
# [21] = target: GRK5 (human) (UniProt P34947)
# [22] = target: JAK3 JH1 JH2 (human) (UniProt P52333)
# Sequence of JAK3 JH1 JH2 (human) (P52333 whole entry, looked up): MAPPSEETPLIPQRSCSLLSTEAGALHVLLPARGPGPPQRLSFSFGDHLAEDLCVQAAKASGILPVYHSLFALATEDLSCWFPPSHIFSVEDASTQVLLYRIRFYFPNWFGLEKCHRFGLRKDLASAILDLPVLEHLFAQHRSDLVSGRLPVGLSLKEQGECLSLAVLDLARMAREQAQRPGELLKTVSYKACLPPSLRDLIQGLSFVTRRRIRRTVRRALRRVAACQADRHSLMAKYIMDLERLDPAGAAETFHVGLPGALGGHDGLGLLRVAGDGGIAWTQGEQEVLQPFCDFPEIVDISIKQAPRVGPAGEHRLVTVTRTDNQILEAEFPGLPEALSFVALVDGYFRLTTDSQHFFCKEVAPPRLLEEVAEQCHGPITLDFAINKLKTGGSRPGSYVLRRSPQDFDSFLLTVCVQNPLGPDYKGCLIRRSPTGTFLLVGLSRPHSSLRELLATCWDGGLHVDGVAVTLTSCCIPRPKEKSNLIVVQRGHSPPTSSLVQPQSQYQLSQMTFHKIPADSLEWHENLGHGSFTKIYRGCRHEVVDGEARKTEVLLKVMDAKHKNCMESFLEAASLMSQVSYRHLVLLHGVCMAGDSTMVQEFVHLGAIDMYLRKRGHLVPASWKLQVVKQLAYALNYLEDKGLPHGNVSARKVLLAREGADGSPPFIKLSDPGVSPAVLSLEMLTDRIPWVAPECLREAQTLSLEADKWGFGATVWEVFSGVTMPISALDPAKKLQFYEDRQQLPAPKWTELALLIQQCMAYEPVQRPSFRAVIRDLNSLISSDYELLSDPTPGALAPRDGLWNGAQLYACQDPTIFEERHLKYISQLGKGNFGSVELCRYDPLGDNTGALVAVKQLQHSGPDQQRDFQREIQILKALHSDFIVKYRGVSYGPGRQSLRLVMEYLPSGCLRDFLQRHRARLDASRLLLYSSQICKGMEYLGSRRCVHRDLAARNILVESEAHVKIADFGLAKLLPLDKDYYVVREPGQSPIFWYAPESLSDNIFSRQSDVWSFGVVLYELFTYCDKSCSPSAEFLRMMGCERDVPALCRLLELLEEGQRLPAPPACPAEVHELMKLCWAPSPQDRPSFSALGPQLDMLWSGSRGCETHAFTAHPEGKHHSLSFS
# [23] = target: LCK (human) (UniProt P06239)
# [24] = target: MAP2K2 (human) (UniProt P36507)
# [25] = target: MAP4K5 (human) (UniProt Q9Y4K4)
# [26] = target: MAPK9 (human) (UniProt P45984)
# [27] = target: MARK3 (human) (UniProt P27448)
# [28] = target: MATK (human) (UniProt P42679)
# [29] = target: MERTK (human) (UniProt Q12866)
# [30] = target: NLK (human) (UniProt Q9UBE8)
# Sequence of NLK (human) (Q9UBE8 whole entry, looked up): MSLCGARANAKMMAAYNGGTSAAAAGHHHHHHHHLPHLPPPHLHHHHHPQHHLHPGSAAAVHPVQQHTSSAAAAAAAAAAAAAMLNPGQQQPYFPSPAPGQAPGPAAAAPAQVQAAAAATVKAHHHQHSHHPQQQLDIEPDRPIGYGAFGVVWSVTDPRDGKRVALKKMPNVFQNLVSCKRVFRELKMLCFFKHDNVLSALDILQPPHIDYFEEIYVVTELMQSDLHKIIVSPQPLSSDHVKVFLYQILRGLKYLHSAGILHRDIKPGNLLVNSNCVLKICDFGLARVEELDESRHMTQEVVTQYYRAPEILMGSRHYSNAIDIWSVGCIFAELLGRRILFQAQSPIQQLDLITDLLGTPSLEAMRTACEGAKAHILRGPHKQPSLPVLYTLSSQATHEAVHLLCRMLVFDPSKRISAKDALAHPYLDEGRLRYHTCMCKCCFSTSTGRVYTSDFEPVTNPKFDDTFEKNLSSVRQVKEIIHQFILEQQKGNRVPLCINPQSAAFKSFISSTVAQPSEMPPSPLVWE
# [31] = target: NTRK2 (human) (UniProt Q16620)
# [32] = target: PAK2 (human) (UniProt Q13177)
# [33] = target: PAK3 (human) (UniProt O75914)
# [34] = target: PLK2 (human) (UniProt Q9NYY3)
# [35] = target: PRKCD (human) (UniProt Q05655)
# [36] = target: PRKCG (human) (UniProt P05129)
# [37] = target: PRKG2 (human) (UniProt Q13237)
# Sequence of PRKG2 (human) (Q13237 whole entry, looked up): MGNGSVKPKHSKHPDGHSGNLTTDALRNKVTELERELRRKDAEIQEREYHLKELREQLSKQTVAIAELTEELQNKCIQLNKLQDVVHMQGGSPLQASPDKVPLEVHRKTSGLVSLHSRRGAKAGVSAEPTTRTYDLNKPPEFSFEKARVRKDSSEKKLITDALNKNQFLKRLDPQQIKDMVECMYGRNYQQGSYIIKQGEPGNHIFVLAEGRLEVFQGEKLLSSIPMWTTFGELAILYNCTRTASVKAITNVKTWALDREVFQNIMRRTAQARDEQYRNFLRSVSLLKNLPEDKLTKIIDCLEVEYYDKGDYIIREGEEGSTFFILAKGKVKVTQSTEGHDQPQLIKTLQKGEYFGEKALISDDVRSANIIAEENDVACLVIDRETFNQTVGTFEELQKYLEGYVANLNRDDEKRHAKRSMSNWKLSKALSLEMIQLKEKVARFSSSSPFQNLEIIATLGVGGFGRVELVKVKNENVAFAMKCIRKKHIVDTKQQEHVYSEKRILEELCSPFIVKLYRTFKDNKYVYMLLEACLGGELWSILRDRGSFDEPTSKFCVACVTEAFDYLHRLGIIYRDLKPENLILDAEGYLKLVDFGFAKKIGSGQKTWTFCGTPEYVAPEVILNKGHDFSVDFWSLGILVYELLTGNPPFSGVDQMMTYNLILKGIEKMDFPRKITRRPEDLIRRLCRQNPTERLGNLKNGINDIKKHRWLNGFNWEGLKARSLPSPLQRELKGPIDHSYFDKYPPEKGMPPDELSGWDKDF
# [38] = target: ROCK2 (human) (UniProt O75116)
# [39] = target: STK33 (human) (UniProt Q9BYT3)
# [40] = target: TEC (human) (UniProt P42680)
# [41] = target: ULK1 (human) (UniProt O75385)
# [42] = target: ULK2 (human) (UniProt Q8IYT8)
# Sequence of BRSK2 (human) (Q8IWQ3 whole entry, looked up): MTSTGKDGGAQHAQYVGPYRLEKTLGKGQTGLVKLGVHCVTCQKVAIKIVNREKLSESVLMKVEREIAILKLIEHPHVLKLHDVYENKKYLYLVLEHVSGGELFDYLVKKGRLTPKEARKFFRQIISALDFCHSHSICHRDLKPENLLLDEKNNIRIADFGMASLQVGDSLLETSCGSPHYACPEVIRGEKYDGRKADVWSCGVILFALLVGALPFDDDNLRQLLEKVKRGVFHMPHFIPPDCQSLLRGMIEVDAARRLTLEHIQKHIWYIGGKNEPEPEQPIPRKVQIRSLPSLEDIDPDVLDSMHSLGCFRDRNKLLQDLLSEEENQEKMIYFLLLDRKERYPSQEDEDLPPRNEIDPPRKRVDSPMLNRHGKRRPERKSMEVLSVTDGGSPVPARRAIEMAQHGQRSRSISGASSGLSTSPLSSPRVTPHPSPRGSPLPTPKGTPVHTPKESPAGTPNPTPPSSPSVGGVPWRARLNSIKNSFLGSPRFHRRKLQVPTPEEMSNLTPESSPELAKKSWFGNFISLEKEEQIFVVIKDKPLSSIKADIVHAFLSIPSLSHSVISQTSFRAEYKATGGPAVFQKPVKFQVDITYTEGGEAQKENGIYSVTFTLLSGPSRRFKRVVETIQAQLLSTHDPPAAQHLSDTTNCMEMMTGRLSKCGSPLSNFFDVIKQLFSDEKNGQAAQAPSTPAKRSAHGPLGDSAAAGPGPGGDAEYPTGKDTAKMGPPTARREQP
# Sequence of BLK (human) (P51451 whole entry, looked up): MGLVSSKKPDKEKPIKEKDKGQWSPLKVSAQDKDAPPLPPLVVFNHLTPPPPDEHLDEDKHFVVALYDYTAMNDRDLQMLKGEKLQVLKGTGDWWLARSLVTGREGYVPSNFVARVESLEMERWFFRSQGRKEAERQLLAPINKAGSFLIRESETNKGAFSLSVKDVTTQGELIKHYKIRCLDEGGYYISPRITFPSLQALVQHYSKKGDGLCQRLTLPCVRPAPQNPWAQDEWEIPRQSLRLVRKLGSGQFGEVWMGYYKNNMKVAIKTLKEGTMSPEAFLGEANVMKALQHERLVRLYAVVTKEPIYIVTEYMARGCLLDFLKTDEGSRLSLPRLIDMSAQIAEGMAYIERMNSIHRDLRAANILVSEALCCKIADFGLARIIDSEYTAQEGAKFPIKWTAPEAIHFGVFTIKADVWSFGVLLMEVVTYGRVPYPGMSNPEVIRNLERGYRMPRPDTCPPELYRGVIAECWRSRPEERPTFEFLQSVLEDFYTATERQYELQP
compound,measurement,setting,value
Nc1cccc(-c2cc3c(Oc4cccc(O)c4)ncnc3[nH]2)c1,residual activity,[1],183%
same,residual activity,[2],78.2%
same,residual activity,[3],38.1%
same,residual activity,[4],24.3%
same,residual activity,[5],86.9%
same,residual activity,[6],105%
same,residual activity,[7],94.9%
same,residual activity,[8],98.9%
same,residual activity,[9],75.8%
same,residual activity,[10],104%
same,residual activity,[11],106%
same,residual activity,[12],94%
same,residual activity,[13],83.4%
same,residual activity,[14],101%
same,residual activity,[15],48.2%
same,residual activity,[16],39.7%
same,residual activity,[17],40%
same,residual activity,[18],46.1%
same,residual activity,[19],8.56%
same,residual activity,[20],30.7%
same,residual activity,[21],128%
same,residual activity,[22],123%
same,residual activity,[23],24.2%
same,residual activity,[24],104%
same,residual activity,[25],18.4%
same,residual activity,[26],111%
same,residual activity,[27],77.5%
same,residual activity,[28],97.8%
same,residual activity,[29],63.8%
same,residual activity,[30],87.7%
same,residual activity,[31],95.5%
same,residual activity,[32],88.9%
same,residual activity,[33],79.8%
same,residual activity,[34],106%
same,residual activity,[35],95.7%
same,residual activity,[36],88.1%
same,residual activity,[37],108%
same,residual activity,[38],94.5%
same,residual activity,[39],80.3%
same,residual activity,[40],108%
same,residual activity,[41],143%
same,residual activity,[42],97.5%
c1ccc(-c2n[nH]cc2-c2ccnc3ccccc23)nc1,residual activity,[1],106%
same,residual activity,[2],95.4%
same,residual activity,[3],99.9%
same,residual activity,[4],89.2%
same,residual activity,[5],101%
same,residual activity,[6],85.9%
same,residual activity,[7],97.5%
same,residual activity,[8],106%
same,residual activity,[9],96.6%
same,residual activity,[10],101%
same,residual activity,[11],102%
same,residual activity,[12],101%
same,residual activity,[13],98.3%
same,residual activity,[14],104%
same,residual activity,[15],103%
same,residual activity,[16],99.3%
same,residual activity,[17],98.7%
same,residual activity,[18],110%
same,residual activity,[19],81.4%
same,residual activity,[20],91.2%
same,residual activity,[21],109%
same,residual activity,[22],92.7%
same,residual activity,[23],91.7%
same,residual activity,[24],106%
same,residual activity,[25],87.4%
same,residual activity,[26],98.9%
same,residual activity,[27],87.5%
same,residual activity,[28],87.9%
same,residual activity,[29],92.6%
same,residual activity,[30],79.8%
same,residual activity,[31],112%
same,residual activity,[32],57%
same,residual activity,[33],99.7%
same,residual activity,[34],98.9%
same,residual activity,[35],96.6%
same,residual activity,[36],117%
same,residual activity,[37],89.2%
same,residual activity,[38],100%
same,residual activity,[39],92.9%
same,residual activity,[40],106%
same,residual activity,[41],85.9%
same,residual activity,[42],95.6%
O=C1NC(=O)c2c1c1c3ccccc3n3c1c1c2c2ccccc2n1C1CCC3O1,residual activity,[1],85.8%
same,residual activity,[2],22.3%
same,residual activity,[3],37.7%
same,residual activity,[4],27.5%
same,residual activity,[5],13.6%
same,residual activity,[6],8.36%
same,residual activity,[7],98.7%
same,residual activity,[8],29.9%
same,residual activity,[9],13%
same,residual activity,[10],20.3%
same,residual activity,[11],39.4%
same,residual activity,[12],24.6%
same,residual activity,[13],45.5%
same,residual activity,[14],87.8%
same,residual activity,[15],91.3%
same,residual activity,[16],96.5%
same,residual activity,[17],80.2%
same,residual activity,[18],34.1%
same,residual activity,[19],13.3%
same,residual activity,[20],0.194%
same,residual activity,[21],88.7%
same,residual activity,[22],1.87%
same,residual activity,[23],36.2%
same,residual activity,[24],87.9%
same,residual activity,[25],2.69%
same,residual activity,[26],96.1%
same,residual activity,[27],8.53%
same,residual activity,[28],91.7%
same,residual activity,[29],13.6%
same,residual activity,[30],74.1%
same,residual activity,[31],6.87%
same,residual activity,[32],43.9%
same,residual activity,[33],41.7%
same,residual activity,[34],62.4%
same,residual activity,[35],19%
same,residual activity,[36],32.8%
same,residual activity,[37],6.01%
same,residual activity,[38],73.7%
same,residual activity,[39],12.7%
same,residual activity,[40],142%
same,residual activity,[41],73.1%
same,residual activity,[42],89.1%
CCC(=O)Nc1ccc2ncnc(Nc3cccc(Br)c3)c2c1,residual activity,[1],93.7%
same,residual activity,[2],97.4%
same,residual activity,[3],90.7%
same,residual activity,[4],98.7%
same,residual activity,[5],94.3%
same,residual activity,[6],105%
same,residual activity,[7],103%
same,residual activity,[8],89.5%
same,residual activity,[9],87.1%
same,residual activity,[10],99.4%
same,residual activity,[11],121%
same,residual activity,[12],104%
same,residual activity,[13],91.3%
same,residual activity,[14],113%
same,residual activity,[15],101%
same,residual activity,[16],106%
same,residual activity,[17],93.3%
same,residual activity,[18],99.8%
same,residual activity,[19],86.9%
same,residual activity,[20],94.1%
same,residual activity,[21],107%
same,residual activity,[22],98.3%
same,residual activity,[23],93.1%
same,residual activity,[24],85.1%
same,residual activity,[25],89%
same,residual activity,[26],78.3%
same,residual activity,[27],86.1%
same,residual activity,[28],93.4%
same,residual activity,[29],83.9%
same,residual activity,[30],95.9%
same,residual activity,[31],77.1%
same,residual activity,[32],101%
same,residual activity,[33],105%
same,residual activity,[34],108%
same,residual activity,[35],93.8%
same,residual activity,[36],102%
same,residual activity,[37],110%
same,residual activity,[38],86.1%
same,residual activity,[39],94.1%
same,residual activity,[40],103%
same,residual activity,[41],103%
same,residual activity,[42],118%
